These results are taken from paper PMC5218480 (PLoS ONE, 2017).

The assay has as its system MV-4-11 cells. In words: Gene expression microarray analysis (Affymetrix PrimeView) and GSEA. Format: cell-based, human. Set-up: RFU PODN (11730768_x_at) / Fold change /veh PODN (11730768_x_at) / RFU LINC00158 (11744669_a_at) / Fold change /veh LINC00158 (11744669_a_at) / RFU DUSP10 (11751237_a_at) / Fold change /veh DUSP10 (11751237_a_at) / RFU ID3 (11757404_x_at) / Fold change /veh ID3 (11757404_x_at) / RFU PLEKHG5 (11737974_s_at) / Fold change /veh PLEKHG5 (11737974_s_at) / RFU LRRC4B (11730491_at) / Fold change /veh LRRC4B (11730491_at) / RFU GIMAP4 (11747438_a_at) / Fold change /veh GIMAP4 (11747438_a_at) / RFU KRT8 (11758183_x_at) / Fold change /veh KRT8 (11758183_x_at) / RFU CNN1 (11734310_a_at) / Fold change /veh CNN1 (11734310_a_at) / RFU VPS37D (11726825_at) / Fold change /veh VPS37D (11726825_at) / RFU C10orf10 (11716522_x_at) / Fold change /veh C10orf10 (11716522_x_at) / RFU KIR2DL2 /// KIR2DL4 /// KIR2DL5A /// KIR2DL5B /// KIR2DS1 /// KIR2DS2 /// KIR2DS3 /// KIR2DS4 /// KIR3DL3 /// KIR3DL3 /// KIR3DS1 (11738374_at) / Fold change /veh KIR2DL2 /// KIR2DL4 /// KIR2DL5A /// KIR2DL5B /// KIR2DS1 /// KIR2DS2 /// KIR2DS3 /// KIR2DS4 /// KIR3DL3 /// KIR3DL3 /// KIR3DS1 (11738374_at) / RFU C1QL1 (11718748_at) / Fold change /veh C1QL1 (11718748_at) / RFU TMPRSS4 (11747572_a_at) / Fold change /veh TMPRSS4 (11747572_a_at) / RFU HAMP (11756126_x_at) / Fold change /veh HAMP (11756126_x_at) / RFU RNFT2 (11725882_a_at) / Fold change /veh RNFT2 (11725882_a_at) / RFU NR4A2 (11747474_a_at) / Fold change /veh NR4A2 (11747474_a_at) / RFU ABCC12 (11746883_a_at) / Fold change /veh ABCC12 (11746883_a_at) / RFU TMEM136 (11760407_x_at) / Fold change /veh TMEM136 (11760407_x_at) / RFU CLDN22 /// WWC2 (11732394_at) / Fold change /veh CLDN22 /// WWC2 (11732394_at) / RFU HLA-DPB1 (11760878_x_at) / Fold change /veh HLA-DPB1 (11760878_x_at) / RFU SPINT1 (11716480_a_at) / Fold change /veh SPINT1 (11716480_a_at) / RFU GAP43 (11754022_s_at) / Fold change /veh GAP43 (11754022_s_at) / RFU A4GNT (11735810_at) / Fold change /veh A4GNT (11735810_at) / RFU PRB3 (11715151_x_at) / Fold change /veh PRB3 (11715151_x_at) / RFU TUBB4B (11761932_at) / Fold change /veh TUBB4B (11761932_at) / RFU CAPN14 (11732068_a_at) / Fold change /veh CAPN14 (11732068_a_at) / RFU TMCC2 (11721928_a_at) / Fold change /veh TMCC2 (11721928_a_at) / RFU IRGQ (11745062_a_at) / Fold change /veh IRGQ (11745062_a_at) / RFU FAM174B (11720279_a_at) / Fold change /veh FAM174B (11720279_a_at) / RFU TMPRSS4 (11748680_a_at) / Fold change /veh TMPRSS4 (11748680_a_at) / RFU FAM212B (11763350_a_at) / Fold change /veh FAM212B (11763350_a_at) / RFU PLEKHG5 (11743358_a_at) / Fold change /veh PLEKHG5 (11743358_a_at) / RFU ZSCAN30 (11745921_a_at) / Fold change /veh ZSCAN30 (11745921_a_at) / RFU CMKLR1 (11741424_a_at) / Fold change /veh CMKLR1 (11741424_a_at) / RFU LOC101060620 /// MAPK8IP1 (11723275_at) / Fold change /veh LOC101060620 /// MAPK8IP1 (11723275_at) / RFU SPTSSB (11747773_x_at) / Fold change /veh SPTSSB (11747773_x_at) / RFU PRSS12 (11739890_at) / Fold change /veh PRSS12 (11739890_at) / RFU BIN1 (11741810_x_at) / Fold change /veh BIN1 (11741810_x_at) / RFU WNT11 (11732464_a_at) / Fold change /veh WNT11 (11732464_a_at) / RFU C10orf10 (11716521_a_at) / Fold change /veh C10orf10 (11716521_a_at) / RFU C5orf56 (11738089_at) / Fold change /veh C5orf56 (11738089_at) / RFU CYB561 (11721691_x_at) / Fold change /veh CYB561 (11721691_x_at) / RFU ANKRD19P (11752326_a_at) / Fold change /veh ANKRD19P (11752326_a_at) / RFU OR2T12 /// OR2T33 /// OR2T8 (11738714_s_at) / Fold change /veh OR2T12 /// OR2T33 /// OR2T8 (11738714_s_at) / RFU VCAN (11748164_a_at) / Fold change /veh VCAN (11748164_a_at) / RFU JSRP1 (11732532_at) / Fold change /veh JSRP1 (11732532_at) / RFU KRTAP10-11 (11738290_x_at) / Fold change /veh KRTAP10-11 (11738290_x_at) / RFU MYO3A (11730013_a_at) / Fold change /veh MYO3A (11730013_a_at) / RFU EBF3 (11725865_a_at) / Fold change /veh EBF3 (11725865_a_at) / RFU CAMK2N1 (11719241_x_at) / Fold change /veh CAMK2N1 (11719241_x_at) / RFU C5orf56 (11738088_a_at) / Fold change /veh C5orf56 (11738088_a_at) / RFU OLFML3 (11715873_a_at) / Fold change /veh OLFML3 (11715873_a_at) / RFU LOC100653217 /// NTM (11731650_a_at) / Fold change /veh LOC100653217 /// NTM (11731650_a_at) / RFU MAPK11 (11762145_a_at) / Fold change /veh MAPK11 (11762145_a_at) / RFU FIZ1 (11724087_x_at) / Fold change /veh FIZ1 (11724087_x_at) / RFU OASL (11726364_x_at) / Fold change /veh OASL (11726364_x_at) / RFU SOX15 (11748057_x_at) / Fold change /veh SOX15 (11748057_x_at) / RFU CD79A (11719716_a_at) / Fold change /veh CD79A (11719716_a_at) / RFU HIST1H1D (11736915_at) / Fold change /veh HIST1H1D (11736915_at) / RFU CASKIN2 (11723855_a_at) / Fold change /veh CASKIN2 (11723855_a_at) / RFU LOC730098 (11760151_x_at) / Fold change /veh LOC730098 (11760151_x_at) / RFU OR4N2 (11742367_at) / Fold change /veh OR4N2 (11742367_at) / RFU PRRT2 (11749266_a_at) / Fold change /veh PRRT2 (11749266_a_at) / RFU SNX32 (11753110_a_at) / Fold change /veh SNX32 (11753110_a_at) / RFU CDHR5 (11726645_a_at) / Fold change /veh CDHR5 (11726645_a_at) / RFU RCAN1 (11760418_a_at) / Fold change /veh RCAN1 (11760418_a_at) / RFU FAM167A (11723789_a_at) / Fold change /veh FAM167A (11723789_a_at) / RFU FAM26E (11764081_at) / Fold change /veh FAM26E (11764081_at) / RFU ISYNA1 (11749810_s_at) / Fold change /veh ISYNA1 (11749810_s_at) / RFU ACY1 (11761880_at) / Fold change /veh ACY1 (11761880_at) / RFU 11764098_at / Fold change /veh 11764098_at / RFU SAMD14 (11745864_x_at) / Fold change /veh SAMD14 (11745864_x_at) / RFU NPB (11741838_a_at) / Fold change /veh NPB (11741838_a_at) / RFU TMPRSS6 (11731388_a_at) / Fold change /veh TMPRSS6 (11731388_a_at) / RFU KRTAP10-2 (11738614_at) / Fold change /veh KRTAP10-2 (11738614_at) / RFU ARHGAP8 /// PRR5-ARHGAP8 (11727945_x_at) / Fold change /veh ARHGAP8 /// PRR5-ARHGAP8 (11727945_x_at) / RFU KRTAP5-7 /// NADSYN1 (11734609_at) / Fold change /veh KRTAP5-7 /// NADSYN1 (11734609_at) / RFU RASL12 (11751679_a_at) / Fold change /veh RASL12 (11751679_a_at) / RFU CDKN2B (11736163_a_at) / Fold change /veh CDKN2B (11736163_a_at) / RFU PRF1 (11729649_at) / Fold change /veh PRF1 (11729649_at) / RFU, ZNF638 /// ZNF638-IT1 / Fold change vs veh, ZNF638 /// ZNF638-IT1 / RFU, PANK3 / Fold change vs veh, PANK3 / RFU, SH3YL1 / Fold change vs veh, SH3YL1 / RFU, ZEB2 / Fold change vs veh, ZEB2 / RFU, NRIP1 / Fold change vs veh, NRIP1 / RFU, PTTG1IP / Fold change vs veh, PTTG1IP / RFU, CAPN2 / Fold change vs veh, CAPN2 / RFU, MED14 / Fold change vs veh, MED14 / RFU, SNORA58 / Fold change vs veh, SNORA58 / RFU, C1orf63 / Fold change vs veh, C1orf63 / RFU, LRRFIP1 / Fold change vs veh, LRRFIP1 / RFU, NDUFAF7 / Fold change vs veh, NDUFAF7 / RFU, SLC12A2 / Fold change vs veh, SLC12A2 / RFU, IBTK / Fold change vs veh, IBTK / RFU, ESF1 / Fold change vs veh, ESF1 / Fold change vs veh, TMEM50B / RFU, TAOK1 / Fold change vs veh, TAOK1 / RFU, ACBD3 / Fold change vs veh, ACBD3 / RFU, TMA16 / Fold change vs veh, TMA16 / RFU, RWDD3 / Fold change vs veh, RWDD3 / RFU, BCAT1 / Fold change vs veh, BCAT1 / RFU, EDEM3 / Fold change vs veh, EDEM3 / RFU, TMEM33 / Fold change vs veh, TMEM33 / RFU, WDR75 / Fold change vs veh, WDR75 / RFU, AHCTF1 / Fold change vs veh, AHCTF1 / RFU, TFRC / Fold change vs veh, TFRC / RFU, ZDHHC17 / Fold change vs veh, ZDHHC17 / RFU, NOM1 / Fold change vs veh, NOM1 / RFU, ARL8B / Fold change vs veh, ARL8B / RFU, ZBTB11 / Fold change vs veh, ZBTB11 / RFU, TAMM41 / Fold change vs veh, TAMM41 / RFU, KIAA1704 /// LOC100996395 / Fold change vs veh, KIAA1704 /// LOC100996395 / RFU, ING1 / Fold change vs veh, ING1 / RFU, TRMT61B / Fold change vs veh, TRMT61B / RFU, FUBP3 / Fold change vs veh, FUBP3 / RFU, TP53 / Fold change vs veh, TP53 / RFU, TNKS2 / Fold change vs veh, TNKS2 / RFU, ZFP14 / Fold change vs veh, ZFP14 / RFU, ACTR2 / Fold change vs veh, ACTR2 / RFU, PPP3R1 / Fold change vs veh, PPP3R1 / RFU, PIK3R1 / Fold change vs veh, PIK3R1 / RFU, HNRNPA1 / Fold change vs veh, HNRNPA1 / RFU, RNF170 / Fold change vs veh, RNF170 / RFU, ZNF28 / Fold change vs veh, ZNF28 / RFU, RNGTT / Fold change vs veh, RNGTT / RFU, OGT / Fold change vs veh, OGT / RFU, BRD1 / Fold change vs veh, BRD1 / RFU, MARS / Fold change vs veh, MARS / RFU, ZNF655 / Fold change vs veh, ZNF655 / RFU, FAHD1 / Fold change vs veh, FAHD1 / RFU, BDP1 / Fold change vs veh, BDP1 / RFU, LRRCC1 / Fold change vs veh, LRRCC1 / RFU, ARID1A / Fold change vs veh, ARID1A / RFU, ZNF146 / Fold change vs veh, ZNF146 / RFU, ZNF330 / Fold change vs veh, ZNF330 / RFU, GPN3 / Fold change vs veh, GPN3 / RFU, C9orf123 / Fold change vs veh, C9orf123 / RFU, N4BP2L2 / Fold change vs veh, N4BP2L2 / RFU, ARFIP1 / Fold change vs veh, ARFIP1 / RFU, FAM179B / Fold change vs veh, FAM179B / RFU, BCL10 / Fold change vs veh, BCL10 / RFU, UHRF1BP1L / Fold change vs veh, UHRF1BP1L / RFU, BET1 / Fold change vs veh, BET1 / RFU, CNOT2 / Fold change vs veh, CNOT2 / RFU, ZNF268 / Fold change vs veh, ZNF268 / Fold change vs veh, ZNF507 / RFU, DGCR2 / Fold change vs veh, DGCR2 / RFU, WDSUB1 / Fold change vs veh, WDSUB1 / Fold change vs veh, HSP90B1 /// MIR3652 / RFU, ADSS / Fold change vs veh, ADSS / RFU, GK / Fold change vs veh, GK / RFU, ZNF148 / Fold change vs veh, ZNF148 / RFU, TAF9 / Fold change vs veh, TAF9 / RFU, SLC1A5 / Fold change vs veh, SLC1A5 / RFU, SLMO2 / Fold change vs veh, SLMO2 / RFU, ABCC4 / Fold change vs veh, ABCC4 / RFU, LOC101060439 /// RAP1B / Fold change vs veh, LOC101060439 /// RAP1B / RFU, RFX7 / Fold change vs veh, RFX7 / RFU, GTPBP10 / Fold change vs veh, GTPBP10 / RFU, CNEP1R1 / Fold change vs veh, CNEP1R1 / RFU, BIVM-ERCC5 /// ERCC5 / Fold change vs veh, BIVM-ERCC5 /// ERCC5 / RFU, ILF3 / Fold change vs veh, ILF3 / RFU 11762660_at / Fold change /veh 11762660_at / RFU VCAN (11757783_s_at) / Fold change /veh VCAN (11757783_s_at) / RFU DDX43 (11728927_at) / Fold change /veh DDX43 (11728927_at) / RFU KRT8 (11758188_x_at) / Fold change /veh KRT8 (11758188_x_at) / RFU NKD1 (11759106_at) / Fold change /veh NKD1 (11759106_at) / RFU SRD5A1 (11742802_a_at) / Fold change /veh SRD5A1 (11742802_a_at) / RFU TPSAB1 /// TPSB2 (11721975_s_at) / Fold change /veh TPSAB1 /// TPSB2 (11721975_s_at) / RFU GSTM3 (11746129_a_at) / Fold change /veh GSTM3 (11746129_a_at) / RFU IL23R (11737362_x_at) / Fold change /veh IL23R (11737362_x_at) / RFU TMEM51 (11727254_a_at) / Fold change /veh TMEM51 (11727254_a_at) / RFU PIWIL2 (11732686_x_at) / Fold change /veh PIWIL2 (11732686_x_at) / RFU ORM1 (11744905_x_at) / Fold change /veh ORM1 (11744905_x_at) / RFU CCDC152 (11743942_at) / Fold change /veh CCDC152 (11743942_at) / RFU ECM1 (11717891_a_at) / Fold change /veh ECM1 (11717891_a_at) / RFU IL23R (11748794_a_at) / Fold change /veh IL23R (11748794_a_at) / RFU TNFAIP8L3 (11732012_x_at) / Fold change /veh TNFAIP8L3 (11732012_x_at) / RFU MBOAT4 (11741988_at) / Fold change /veh MBOAT4 (11741988_at) / RFU 11764193_at / Fold change /veh 11764193_at / RFU TMEM53 (11763286_at) / Fold change /veh TMEM53 (11763286_at) / RFU MAGEB2 (11727129_at) / Fold change /veh MAGEB2 (11727129_at) / RFU TMEM200A (11744735_a_at) / Fold change /veh TMEM200A (11744735_a_at) / RFU CCDC152 (11751479_a_at) / Fold change /veh CCDC152 (11751479_a_at) / RFU FAM211A (11726209_a_at) / Fold change /veh FAM211A (11726209_a_at) / RFU RGS16 (11746705_a_at) / Fold change /veh RGS16 (11746705_a_at) / RFU VCAN (11755009_s_at) / Fold change /veh VCAN (11755009_s_at) / RFU RHOB (11743442_s_at) / Fold change /veh RHOB (11743442_s_at) / RFU RGS16 (11720943_a_at) / Fold change /veh RGS16 (11720943_a_at) / RFU RGS16 (11720944_at) / Fold change /veh RGS16 (11720944_at) / RFU, VPS4B / Fold change vs veh, VPS4B / RFU, CREB1 / Fold change vs veh, CREB1 / RFU, DNAJC13 / Fold change vs veh, DNAJC13 / RFU, GNAQ / Fold change vs veh, GNAQ / RFU, CDK5R1 / Fold change vs veh, CDK5R1 / RFU, ZRANB3 / Fold change vs veh, ZRANB3 / RFU, CUL4A / Fold change vs veh, CUL4A / RFU, CCNY / Fold change vs veh, CCNY / RFU, UFL1 / Fold change vs veh, UFL1 / RFU, COG3 / Fold change vs veh, COG3 / RFU, DIAPH2 / Fold change vs veh, DIAPH2 / RFU, SKA2 / Fold change vs veh, SKA2 / RFU, AFF3 / Fold change vs veh, AFF3 / RFU, LMF1 / Fold change vs veh, LMF1 / RFU, IPO11 / Fold change vs veh, IPO11 / RFU, DFFB / Fold change vs veh, DFFB / RFU, FOXP1 / Fold change vs veh, FOXP1 / RFU, CARD8 / Fold change vs veh, CARD8 / RFU, STRN3 / Fold change vs veh, STRN3 / RFU, ADK / Fold change vs veh, ADK / RFU, RASSF2 / Fold change vs veh, RASSF2 / RFU, WIPF1 / Fold change vs veh, WIPF1 / RFU, LARP1B / Fold change vs veh, LARP1B / RFU, RASA1 / Fold change vs veh, RASA1 / RFU, RB1 / Fold change vs veh, RB1 / RFU, PPFIA1 / Fold change vs veh, PPFIA1 / RFU, MAT2A / Fold change vs veh, MAT2A / RFU, CCT5 / Fold change vs veh, CCT5 / RFU, WDR92 / Fold change vs veh, WDR92 / RFU, CUX1 / Fold change vs veh, CUX1 / RFU, TTC7A / Fold change vs veh, TTC7A / RFU, TMEM135 / Fold change vs veh, TMEM135 / RFU, DEPTOR / Fold change vs veh, DEPTOR / RFU, CPM / Fold change vs veh, CPM / RFU, DNAJB6 / Fold change vs veh, DNAJB6 / RFU, CACNA2D3 / Fold change vs veh, CACNA2D3 / RFU, DTX4 / Fold change vs veh, DTX4 / RFU, TFCP2 / Fold change vs veh, TFCP2 / RFU, GMCL1 /// GMCL1P1 / Fold change vs veh, GMCL1 /// GMCL1P1 / RFU, AEBP2 / Fold change vs veh, AEBP2 / RFU, SNHG1 /// SNORD22 /// SNORD25 /// SNORD26 /// SNORD27 /// SNORD28 /// SNORD29 /// SNORD31 / Fold change vs veh, SNHG1 /// SNORD22 /// SNORD25 /// SNORD26 /// SNORD27 /// SNORD28 /// SNORD29 /// SNORD31 / Fold change (Aza/veh), C12orf56 (ProbeSet 11735607_a_at) / Fold change (ACY-1035/veh), C12orf56 (ProbeSet 11735607_a_at) / Fold change (Aza/veh), FGFR1OP (ProbeSet 11751329_s_at) / Fold change (ACY-1035/veh), FGFR1OP (ProbeSet 11751329_s_at) / Fold change (Aza/veh), VPS36 (ProbeSet 11739960_a_at) / Fold change (ACY-1035/veh), VPS36 (ProbeSet 11739960_a_at) / RFU SYPL1 (11715823_x_at) / Fold change /veh SYPL1 (11715823_x_at) / RFU IGFBP7 (11715501_s_at) / Fold change /veh IGFBP7 (11715501_s_at) / RFU REEP3 (11722064_at) / Fold change /veh REEP3 (11722064_at) / RFU IGLL1 (11728026_x_at) / Fold change /veh IGLL1 (11728026_x_at): dose or concentration left out as unconfirmed. Conditions: ProbeSet 11731461_x_at; LIST D.

Turning to `Nc1ccc(-c2cccs2)cc1NC(=O)c1ccc2c(c1)cc(C1CC1)n2CCN1CCOCC1` [ACY-1035], the “RFU, CPM” value worked out at 131.54 RFU.
